Drawing on PubChem BioAssay AID330 (DTP/NCI, 2004), this text covers T/C for 19 molecules.

Where “and” joins values, the source holds several entries; their conditions need not be identical. Identical values can stand only once. Inconclusive results and toxic doses are left out.

For the assay, the system named is P388 leukemia ip, CD2F1 mice, survival T/C. As to the kind of experiment: NCI In Vivo Anticancer Drug Screen. Data for tumor model P388 Leukemia (intraperitoneal) in CD2F1 (CDF1) mice. To be noted: endpoint: median survival time, higher = longer survival. A digest of the protocol:
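Mice carrying the transplanted tumor received test compound or vehicle. Survival was recorded in each group, and the value is the treated-group measurement divided by that of the vehicle-treated control group.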

The mark [1] stands for this setting: dose: 50.0 mg/kg/injection, schedule: Q01DX005 (ip), vehicle: Klucel (hydroxypropylcellulose) (HPC).
The mark [2] stands for this setting: dose: 100.0 mg/kg/injection, schedule: Q01DX005 (ip), vehicle: Klucel (hydroxypropylcellulose) (HPC).
Setting [3] is: dose: 200.0 mg/kg/injection, schedule: Q01DX005 (ip), vehicle: Klucel (hydroxypropylcellulose) (HPC).
Where [4] appears, read: dose: 60.0 mg/kg/injection, schedule: Q01DX005 (ip), vehicle: saline with Tween-80.
[5] abbreviates: dose: 120.0 mg/kg/injection, schedule: Q01DX005 (ip), vehicle: saline with Tween-80.
Where [6] appears, read: dose: 240.0 mg/kg/injection, schedule: Q01DX005 (ip), vehicle: saline with Tween-80.

As to `COc1ccc(-c2nn(CCO)c(=O)c(C#N)c2-c2ccc(OC)cc2)cc1`, the T/C is 101 % of control (dose: 25.0 mg/kg/injection, schedule: Q04DX002 (ip), vehicle: distilled water + Tween-80); 98 % of control (dose: 50.0 mg/kg/injection, schedule: Q04DX002 (ip), vehicle: distilled water + Tween-80); 103 % of control (dose: 100.0 mg/kg/injection, schedule: Q04DX002 (ip), vehicle: distilled water + Tween-80); 89 % of control (dose: 200.0 mg/kg/injection, schedule: Q04DX002 (ip), vehicle: distilled water + Tween-80).

In the case of `COC1=NC=CC=CC1`, the T/C (dose: 6.25 mg/kg/injection, schedule: Q01DX009 (ip), vehicle: saline with Tween-80) is 103 % of control; the T/C (dose: 12.5 mg/kg/injection, schedule: Q01DX009 (ip), vehicle: saline with Tween-80) is 111 % of control; the T/C (dose: 25.0 mg/kg/injection, schedule: Q01DX009 (ip), vehicle: saline with Tween-80) is 107 % of control.

With `COc1cccc2c1C(=O)c1c(O)c3c(c(O)c1C2=O)CC(O)(/C(C)=N/NC(=O)CCC(=O)N/N=C(\C)C1(O)Cc2c(O)c4c(c(O)c2C(OC2CC(N(C)C)C(O)C(C)O2)C1)C(=O)c1c(OC)cccc1C4=O)CC3OC1CC(N(C)C)C(O)C(C)O1` (centres undefined), the T/C (dose: 1.0 mg/kg/injection, schedule: Q01DX009 (ip), vehicle: water) was 157 % of control; the T/C (dose: 2.0 mg/kg/injection, schedule: Q01DX009 (ip), vehicle: water) is 183 % of control; the T/C (dose: 3.13 mg/kg/injection, schedule: Q04DX003 (ip), vehicle: water) is 103 % of control; the T/C (dose: 4.0 mg/kg/injection, schedule: Q01DX009 (ip), vehicle: water) was 178 % of control and 203 % of control; the T/C (dose: 6.25 mg/kg/injection, schedule: Q04DX003 (ip), vehicle: water) was 110 % of control; the T/C (dose: 8.0 mg/kg/injection, schedule: Q01DX009 (ip), vehicle: water) was 160 % of control and 240 % of control. In addition, the T/C is 117 % of control (dose: 12.5 mg/kg/injection, schedule: Q04DX003 (ip), vehicle: water); 152 % of control (dose: 16.0 mg/kg/injection, schedule: Q01DX009 (ip), vehicle: water); 174 % of control (dose: 25.0 mg/kg/injection, schedule: Q04DX003 (ip), vehicle: water); 119 % of control (dose: 50.0 mg/kg/injection, schedule: Q04DX003 (ip), vehicle: water).

In the case of `Oc1ccc(O)c(-c2c(-c3ccccc3)cc3ccccn23)c1`, the T/C is 102 % of control under setting [1], 104 % of control under setting [2] and 104 % of control under setting [3].

As to `COc1cc2c(c(OC)c1OC)-c1ccc(OC)c(=O)cc1[C@@H](NC(=O)c1ccc([N+](=O)[O-])cc1)CC2`, the T/C (dose: 0.25 mg/kg/injection, schedule: Q01DX009 (ip), vehicle: Klucel (hydroxypropylcellulose) (HPC)) was 109 % of control and 115 % of control; the T/C (dose: 0.5 mg/kg/injection, schedule: Q01DX009 (ip), vehicle: Klucel (hydroxypropylcellulose) (HPC)) was 114 % of control; the T/C (dose: 0.78 mg/kg/injection, schedule: Q01DX009 (ip), vehicle: Klucel (hydroxypropylcellulose) (HPC)) was 108 % of control; the T/C (dose: 1.0 mg/kg/injection, schedule: Q01DX009 (ip), vehicle: Klucel (hydroxypropylcellulose) (HPC)) is 114 % of control and 124 % of control; the T/C (dose: 1.56 mg/kg/injection, schedule: Q01DX009 (ip), vehicle: Klucel (hydroxypropylcellulose) (HPC)) is 112 % of control; the T/C (dose: 2.0 mg/kg/injection, schedule: Q01DX009 (ip), vehicle: Klucel (hydroxypropylcellulose) (HPC)) is 124 % of control. Moreover, the T/C was 160 % of control (dose: 3.12 mg/kg/injection, schedule: Q01DX009 (ip), vehicle: Klucel (hydroxypropylcellulose) (HPC)); 166 % of control (dose: 4.0 mg/kg/injection, schedule: Q01DX009 (ip), vehicle: Klucel (hydroxypropylcellulose) (HPC)); 198 % of control (dose: 6.25 mg/kg/injection, schedule: Q01DX009 (ip), vehicle: Klucel (hydroxypropylcellulose) (HPC)).

With `CN1ON(c2ccc(Cl)c(Cl)c2)OC1=O`, the T/C by setting is: (dose: 12.5 mg/kg/injection, schedule: Q01DX009 (ip), vehicle: saline) 103 % of control; (dose: 25.0 mg/kg/injection, schedule: Q01DX009 (ip), vehicle: saline) 105 % of control; (dose: 50.0 mg/kg/injection, schedule: Q01DX009 (ip), vehicle: saline) 104 % of control and 109 % of control.

For the molecule `COc1cc(CO)c(CO)cc1OC`, the T/C is 93 % of control (dose: 0.75 mg/kg/injection, schedule: Q01DX005 (ip), vehicle: saline); 95 % of control (dose: 1.5 mg/kg/injection, schedule: Q01DX005 (ip), vehicle: saline); 93 % of control (dose: 3.0 mg/kg/injection, schedule: Q01DX005 (ip), vehicle: saline); 98 % of control (dose: 3.12 mg/kg/injection, schedule: Q01DX005 (ip), vehicle: saline).

Take `O=C(Nc1ccc(N=C=S)cc1Cl)c1cc(Cl)cc(Cl)c1O`: the T/C (dose: 50.0 mg/kg/injection, schedule: Q01DX009 (ip), vehicle: Klucel (hydroxypropylcellulose) (HPC)) was 119 % of control and the T/C (dose: 100.0 mg/kg/injection, schedule: Q01DX009 (ip), vehicle: Klucel (hydroxypropylcellulose) (HPC)) was 122 % of control.

Take `c1cnc2c3ccncc3c3nc(-c4ccncc4)[nH]c3c2c1`: the T/C under setting [1] is 91 % of control, the T/C under setting [2] is 88 % of control and the T/C under setting [3] is 101 % of control.

Consider `CC(=O)[O-].O=C(N/N=C/c1ccccc1[O-])c1ccccc1.[Zn+2]`, for which the T/C is 95 % of control under setting [4] and 106 % of control under setting [5].

For the molecule `Cc1ccc(-n2cnc3c(N)nc(N)nc32)cc1`, the T/C is 100 % of control (dose: 1.56 mg/kg/injection, schedule: Q01DX005 (ip), vehicle: saline with Tween-80); 108 % of control (dose: 3.13 mg/kg/injection, schedule: Q01DX005 (ip), vehicle: saline with Tween-80); 108 % of control and 112 % of control (dose: 6.25 mg/kg/injection, schedule: Q01DX005 (ip), vehicle: saline with Tween-80); 115 % of control (dose: 12.5 mg/kg/injection, schedule: Q01DX005 (ip), vehicle: saline with Tween-80).

Turning to `C=CCN(CC=C)C(=O)Nc1cc(OC)ccc1OC`, the T/C is 97 % of control under setting [4], 97 % of control under setting [5] and 103 % of control under setting [6].

For `Cc1cc2nc3[nH]c4ccccc4c3nc2cc1C`, the T/C reads like this: (dose: 25.0 mg/kg/injection, schedule: Q01DX009 (ip), vehicle: suspension in saline) 94 % of control; (dose: 50.0 mg/kg/injection, schedule: Q01DX009 (ip), vehicle: suspension in saline) 92 % of control; (dose: 100.0 mg/kg/injection, schedule: Q01DX009 (ip), vehicle: suspension in saline) 94 % of control; (dose: 200.0 mg/kg/injection, schedule: Q01DX009 (ip), vehicle: suspension in saline) 92 % of control.

Consider `CCOC(=O)C1CSC(c2c(CO)cnc(C)c2O)N1` (centres undefined), for which the T/C (dose: 60.0 mg/kg/injection, schedule: Q01DX005 (ip), vehicle: Klucel (hydroxypropylcellulose) (HPC)) was 100 % of control; the T/C (dose: 120.0 mg/kg/injection, schedule: Q01DX005 (ip), vehicle: Klucel (hydroxypropylcellulose) (HPC)) was 99 % of control; the T/C (dose: 240.0 mg/kg/injection, schedule: Q01DX005 (ip), vehicle: Klucel (hydroxypropylcellulose) (HPC)) was 99 % of control.

Regarding `[O-][n+]1ccc(Br)c(/C=C/c2ccccc2)c1`, the T/C is 101 % of control (dose: 30.0 mg/kg/injection, schedule: Q01DX005 (ip), vehicle: saline with Tween-80); 101 % of control under setting [4]; 102 % of control under setting [5]; 101 % of control under setting [6].

Turning to `OCCN(CCO)c1cc2c3ccccc3ccc2c2ccccc12`, the T/C was 87 % of control under setting [1], 103 % of control under setting [2] and 98 % of control under setting [3].

For the molecule `CN1CCCc2cccc(c2)CCC1`, the T/C (dose: 12.5 mg/kg/injection, schedule: Q01DX005 (ip), vehicle: Klucel (hydroxypropylcellulose) (HPC)) is 98 % of control; the T/C (dose: 25.0 mg/kg/injection, schedule: Q01DX005 (ip), vehicle: Klucel (hydroxypropylcellulose) (HPC)) is 100 % of control; the T/C under setting [1] is 99 % of control and 95 % of control.

`CN(C)C(=S)S(=O)(=O)CCCCCCS(=O)(=O)C(=S)N(C)C`: the T/C was 102 % of control and 103 % of control (dose: 50.0 mg/kg/injection, schedule: Q04DX002 (ip), vehicle: Klucel (hydroxypropylcellulose) (HPC)); 100 % of control and 110 % of control and 114 % of control (dose: 100.0 mg/kg/injection, schedule: Q04DX002 (ip), vehicle: Klucel (hydroxypropylcellulose) (HPC)); 107 % of control and 111 % of control and 123 % of control (dose: 200.0 mg/kg/injection, schedule: Q04DX002 (ip), vehicle: Klucel (hydroxypropylcellulose) (HPC)); 107 % of control and 109 % of control (dose: 300.0 mg/kg/injection, schedule: Q04DX002 (ip), vehicle: Klucel (hydroxypropylcellulose) (HPC)).

With `CCN1C2=NCCN2S(=O)(=O)c2ccccc21`, the T/C by setting is: under setting [4], 96 % of control; under setting [5], 97 % of control; under setting [6], 97 % of control.
